Data taken from patent US10723778B2, “Variants of adrenomedullin and calcitonin gene-related peptide and methods of use” (The Board of Regents of the University of Oklahoma, priority 2015, dated 2020).
Read-outs that look alike come from different tables or passages of the source. Where no end group is shown, it is not given here.

How the values were obtained:
[1] = biological target: T1, RAMP1-CLR ECD (CGRP); purified MBP-RAMP1 ECD-(GS)5-CLR ECD-H6 fusion protein (Homo sapiens, UniProt O60894+Q16602); assay: Fluorescence polarization (FP) peptide binding competition assay, CGRP receptor ECD complex; settings: for Receptor Selectivity, fold for CGRP: CGRP (RAMP1-CLR ECD) over AM1 (RAMP2-CLR ECD); for Receptor Selectivity (in words): CGRP vs AM1 receptor ECD complexes
T1 construct: MBP-hRAMP1.24-111-(Gly-Ser)5-hCLR.29-144-H6; made in house; host or cells: E. coli
Experimental: (§1) Fluorescence polarization peptide binding assay. […] The reactions (50 μL) were incubated for 2 hours at room temperature to reach equilibrium, and the anisotropy was measured in black half-area 96-well plates using a BMG LABTECH's POLARstar® Omega plate reader (Ortenberg, Germany). The reaction buffer was 50 mM HEPES, pH 7.5, 150 mM NaCl, 0.5 mg/ml fatty acid-free BSA, 0.5 mM EDTA, 0.5 mM maltose. Ki values were calculated using nonlinear regression fitting of the competition curves to the exact analytical equations of Roehrl et al. (Biochemistry (2004) 43:16056-66) using GraphPad Prism 5.0 (GraphPad Software, San Diego Calif.).
(§2) The ability of the indicated peptides to displace a FITC-Ahx-AM(37-52)NH2 [S45W, Q50W] probe (7 nM) from purified MBP-RAMP1 ECD-(GS)5-CLR ECD-H6 fusion protein (15 nM) was assessed by fluorescence polarization (anisotropy). The reactions were incubated for 2 hours at room temperature to reach equilibrium, and the anisotropy was measured in black half-area 96-well plates using a BMG LABTECH's POLARstar® Omega plate reader (Ortenberg, Germany). The reaction buffer was 50 mM HEPES, pH 7.5, 150 mM NaCl, 0.5 mg/ml fatty acid-free BSA, 0.5 mM EDTA, 0.5 mM maltose. KI values were calculated using nonlinear regression fitting of the competition curves to the exact analytical equations of Roehrl et al. (Biochemistry (2004) 43:16056-66) using GraphPad Prism 5.0 (GraphPad Software, San Diego Calif.).
as §2, with “Single representative experiments conducted with duplicate samples are shown. Error bars are S.E.M. The ability” for “The ability”, “displace a FITC-Ahx-AM(37-52)NH2[S45W, Q50W] probe” for “displace a FITC-Ahx-AM(37-52)NH2 [S45W, Q50W] probe”
A fluorescence polarization/anisotropy (FP) peptide-binding assay was developed using N-terminally FITC-labeled AM(37-52) S45W/Q50W as the probe, hereafter “FITC-AM W/W.” The probe was custom synthesized and HPLC-purified by RS Synthesis. The large size difference between the MBP-RAMP ECD-CLR ECD fusion proteins (˜65 kDa) and the probe (˜2.5 kDa) ensures a significant anisotropy difference between bound and free states of the probe. […] Kd values for the probe at each of the tethered ECD fusion proteins were determined in equilibrium saturation binding experiments (data not shown), and KI values were determined for unlabeled peptides in equilibrium competition experiments (Table 1; FIGS. 2-5). The data were analyzed according to exact analytical equations using non-linear regression curve fitting in GraphPad Prism 5.0 (GraphPad Software) via user-defined equations.

[2] = biological target: T2, RAMP2-CLR ECD (AM1); purified MBP-RAMP2 ECD [L106R]-(GS)5-CLR ECD-H6 fusion protein (Homo sapiens, UniProt O60895+Q16602, L106R); assay: Fluorescence polarization (FP) peptide binding competition assay, AM1 receptor ECD complex; settings: for Ki / RAMP2-CLR ECD (AM1) KI (nM): FP competition, FITC-AM W/W probe 7 nM, fusion protein 110 nM
T2 construct: MBP-hRAMP2.55-140 [L106R]-(Gly-Ser-Ala)3-hCLR.29-144-H6; made in house; host or cells: E. coli
Experimental: as §1
FIG. 3(A-K) depicts binding of (A) AM-based peptide AM(37-52)NH2, and variant peptide AM(37-52)NH2[S45W, Q50W]; (B) AM-based peptide AM(37-52)NH2, variant peptide AM(37-52)NH2[Q50F], and variant peptide AM(37-52)NH2[Q50W]; (C) variant peptides AM(37-52)NH2[K46L], AM(37-52)NH2[K46M], and AM(37-52)NH2[D39F]; (D) variant peptides AM(37-52)NH2[D39F, K46L, Q50W], AM(37-52)NH2[D39F, K46L, Q50W, Y52F], and AM(37-52)NH2[S45W, K46L, Q50W, Y52F]; (E) variant peptides AM(37-52)NH2[[D39K], AM(37-52)NH2[K46L, Q50W], and AM(37-52)NH2[K46L, Q50W, Y52F]; (F) variant peptides AM(37-52)NH2[S45W, K46M, Q50W, Y52F], and AM(37-52)NH2[S45W, K46W, Q50W, Y52F]; (G) variant peptides AM(37-52)NH2[S45T, K46W, Q50W], AM(37-52)NH2[S45T, K46L, Q50W], and AM(37-52)NH2[S45W, K46L, S48G, Q50W, Y52F]; (H) variant peptide AM(37-52)NH2[S45W, K46L, I47M, Q50W, Y52F]; (I) variant peptides AM(37-52)NH2[S45R, K46W, Q50W], and AM(37-52)NH2[S45R, K46L, Q50W]; (J) variant peptides AM(37-52)NH2[S45R, K46W, S48G, Q50W], AM(37-52)NH2[S45R, K46L, S48G, Q50W], and AM(37-52)NH2[S45R, K46W, I47L, S48G, Q50W]; and (K) variant peptides AM(37-52)NH2[D39W, Q50W], and AM(37-52)NH2[D37V, S45W, K46L, Q50W, Y52F], to the purified AM1 receptor extracellular domain complex. Single representative experiments conducted with duplicate samples are shown. […] The reactions were incubated for 2 hours at room temperature to reach equilibrium, and the anisotropy was measured in black half-area 96-well plates using a BMG LABTECH's POLARstar® Omega plate reader (Ortenberg, Germany). The reaction buffer was 50 mM HEPES, pH 7.5, 150 mM NaCl, 0.5 mg/ml fatty acid-free BSA, 0.5 mM EDTA, 0.5 mM maltose. KI values were calculated using nonlinear regression fitting of the competition curves to the exact analytical equations of Roehrl et al. (Biochemistry (2004) 43:16056-66) using GraphPad Prism 5.0 (GraphPad Software, San Diego Calif.).
as §1, with “Single representative experiments conducted with duplicate samples are shown.” for “Fluorescence polarization peptide binding assay.”, “reactions” for “reactions (50 μL)”, “KI” for “Ki”
A fluorescence polarization/anisotropy (FP) peptide-binding assay was developed using N-terminally FITC-labeled AM(37-52) S45W/Q50W as the probe, hereafter “FITC-AM W/W.” The probe was custom synthesized and HPLC-purified by RS Synthesis. The large size difference between the MBP-RAMP ECD-CLR ECD fusion proteins (˜65 kDa) and the probe (˜2.5 kDa) ensures a significant anisotropy difference between bound and free states of the probe. […] Kd values for the probe at each of the tethered ECD fusion proteins were determined in equilibrium saturation binding experiments (data not shown), and KI values were determined for unlabeled peptides in equilibrium competition experiments (Table 1; FIGS. 2-5).

[3] = biological target: T3, AMY1 receptor extracellular domain complex; purified MBP-RAMP1 ECD-(GS)5-CTR ECD-H6 fusion protein (Homo sapiens, UniProt O60894+P30988); assay: AlphaLISA luminescent peptide binding assay, AMY1 receptor ECD complex; settings: displacement of Biotin-AC413 probe (100 nM), fusion protein 200 nM
T3 construct: purified MBP-RAMP1 ECD-(GS)5-CTR ECD-H6 fusion protein (200 nM); made in house; host or cells: HEK293T
Experimental: A single representative experiment conducted with duplicate samples is shown. Error bars are S.E.M. The ability of the indicated peptides to displace a Biotin-AC413 probe (100 nM) from purified MBP-RAMP1 ECD-(GS)5-CTR ECD-H6 fusion protein (200 nM) was assessed by AlphaLISA® luminescent peptide binding assay (Perkin-Elmer, Waltham, Mass.) as described in Lee et al. (J Biol. Chem (2016) 291:8686-8700). The reactions were incubated for 5 hours at room temperature to reach equilibrium, and the luminescence was measured in white 384-well plates using a BMG LABTECH's POLARstar® Omega plate reader (Ortenberg, Germany). The reaction buffer was 50 mM MOPS, pH 7.4, 150 mM NaCl, 7 mg/ml fatty acid-free BSA and the streptavidin-coated donor beads and MBP-antibody coated acceptor beads were at 15 μg/ml each. IC50 values were calculated using nonlinear regression fitting of the competition curves to a three-parameter, one-site competitive binding equation in GraphPad Prism 5.0 (GraphPad Software, San Diego Calif.).

[4] = RAMP1-CLR ECD (CGRP) KI (nM), FP competition, FITC-AM W/W probe 7 nM, fusion protein 15 nM
[5] = FP competition, FITC-AM W/W probe 7 nM, fusion protein 15 nM
[6] = read-out: RAMP2-CLR ECD (AM1) KI

Row | Ki [1, 4] [nM] | Receptor Selectivity (in words) ([1]; FP assay) | RAMP2-CLR ECD (AM1) KI (nM) [2] | Substance | other results
1 | 25 | – | – | DKFNVAPRSLISPWGF-NH2 [D39F/K46L/Q50W/Y52F] | Receptor Selectivity, fold for CGRP ([1]; FP assay): 1213-fold for CGRP; Ki ([2]; mean ± S.E.M, read-out: RAMP2-CLR ECD (AM1) pKI (converted)): 28200 nM
2 | 6.85 | CGRP | No binding | FVPTDTGPWGF-NH2 [N31D/V32T/S34P/K35W/A36G] | –
3 | – | – | No binding | DKDNVAPRSLISPQGY [Peptide K46L] | RAMP1-CLR ECD (CGRP) KI (nM) [1, 5]: No binding
4 | 8.13 | CGRP | No binding | FVPTDVGPWAF-NH2 [N31D/S34P/K35W] | –
5 | 1.32 | – | – | FVPTDVGPWSY-NH2 [N31D/S34P/K35W/A36S/F37Y] | Receptor Selectivity, fold for CGRP ([1]; FP assay): 245-fold for CGRP; Ki [2, 6]: 324 nM
6 | 10500 | – | – | DKDNVAPRSKISPFGY-NH2 [Peptide Q50F] | Receptor Selectivity, fold for AM1 ([2]; AM1 (RAMP2-CLR ECD) over CGRP (RAMP1-CLR ECD), FP assay): 5-fold for AM1
7 | – | – | No binding | DKDNVAPRSMISPQGY [Peptide K46M] | RAMP1-CLR ECD (CGRP) KI (nM) [1, 5]: No binding
8 | 1.32 | – | – | FVPTDVGPWSF-NH2 [N31D/S34P/K35W/A36S] | IC50 [3]: 260 nM; Receptor Selectivity, fold for CGRP ([1]; FP assay): 1856-fold for CGRP
9 | 2.95 | CGRP over AM1 | – | FVPTDVGPFSF-NH2 [N31D/S34P/K35F/A36S] | Ki [2, 6]: > 10000 nM
10 | – | – | No binding | D39F: AM(37-52)NH2 scaffold variant peptide with D39F substitution (DKFNVAPRSKISPQGY-NH2) [Peptide D39F] | RAMP1-CLR ECD (CGRP) KI (nM) [1, 5]: No binding
11 | 0.78 | CGRP (very selective) | No binding | DKDNVAPRWLMSPWGF-NH2 [S45W/K46L/I47M/Q50W/Y52F] | Ki ([1]; KI for the CGRP receptor ECD complex, FP assay): ~0.78 nM; RAMP2-CLR ECD (AM1) KI (nM) ([2]; listed as AM(37-52)NH2[S45W, K46L, I47M, Q50W, Y52F]): no binding
